Source: US11358947B2, “Substituted 2-acylamino-cycloalkylthiophene-3-carboxylic acid arylamides as inhibitors of calcium-activated chloride channel TMEM16A” (THE REGENTS OF THE UNIVERSITY OF CALIFORNIA, priority 2017, dated 2022)
Several values for one entry are separate records, joined by “and”; a condition that tells them apart may be missing. Equal values may be shown once.

Experiments:
TMEM16A [1] = target: T1, TMEM16A (Homo sapiens, UniProt Q5XXA6); experiment: TMEM16A functional fluorescence plate reader (FPR) assay, iodide influx in FRT cells with YFP; format: cell-based; details: TMEM16A-expressing FRT cells, compound 10 min before iodide/ATP
T1 sequence (Q5XXA6 1-986): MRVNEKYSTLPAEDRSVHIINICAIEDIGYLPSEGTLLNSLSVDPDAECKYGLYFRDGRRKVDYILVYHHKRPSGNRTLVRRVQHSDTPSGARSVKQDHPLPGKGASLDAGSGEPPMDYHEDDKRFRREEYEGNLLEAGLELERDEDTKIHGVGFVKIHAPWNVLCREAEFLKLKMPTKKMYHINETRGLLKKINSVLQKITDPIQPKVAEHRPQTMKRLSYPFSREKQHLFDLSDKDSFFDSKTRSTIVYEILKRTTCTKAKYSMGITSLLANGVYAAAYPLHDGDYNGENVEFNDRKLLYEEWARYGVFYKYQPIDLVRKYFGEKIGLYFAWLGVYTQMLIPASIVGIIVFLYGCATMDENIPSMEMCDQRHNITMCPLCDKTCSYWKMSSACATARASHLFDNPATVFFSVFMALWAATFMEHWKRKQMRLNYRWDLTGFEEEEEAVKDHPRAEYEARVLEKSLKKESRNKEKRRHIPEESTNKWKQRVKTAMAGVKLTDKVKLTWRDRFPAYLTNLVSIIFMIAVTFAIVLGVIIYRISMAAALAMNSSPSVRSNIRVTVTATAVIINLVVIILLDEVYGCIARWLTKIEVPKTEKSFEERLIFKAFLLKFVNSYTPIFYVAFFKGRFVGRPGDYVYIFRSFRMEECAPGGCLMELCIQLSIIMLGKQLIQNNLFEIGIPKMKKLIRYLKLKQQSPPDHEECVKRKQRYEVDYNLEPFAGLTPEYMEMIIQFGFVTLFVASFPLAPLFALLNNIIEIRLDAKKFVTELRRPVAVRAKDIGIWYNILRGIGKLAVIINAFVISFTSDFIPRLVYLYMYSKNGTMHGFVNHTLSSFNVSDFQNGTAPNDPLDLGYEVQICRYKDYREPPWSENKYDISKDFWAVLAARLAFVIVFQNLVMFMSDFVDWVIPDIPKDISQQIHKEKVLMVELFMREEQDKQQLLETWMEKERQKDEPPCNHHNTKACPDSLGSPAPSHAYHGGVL
Procedure: A high-throughput screening assay was previously developed to identify small molecule inhibitors of TMEM16A. […] The assay involved addition of test compounds to the cells for 10 min in a physiological chloride-containing solution, followed by addition of an iodide solution containing ATP. TMEM16A-facilitated iodide influx was determined from the initial time course of decreasing YFP fluorescence.
2-Acylamino-cycloalkylthiophene-3-carboxylic acid arylamides 6aa-6bw were initially evaluated for inhibition of TMEM16A anion channel function using a cell-based functional plate reader assay as reported.
Yields (%) are of the isolated or purified products. IC50 (μM) for inhibition of TMEM16A anion conductance using a fluorescence plate reader (FPR) assay.
Cell lines and culture. Fischer Rat Thyroid (FRT) cells stably co-expressing TMEM16A, TMEM16B and human wild-type CFTR and the halide-sensitive yellow fluorescent protein (YFP)-H148Q were cultured as described. […] For plate reader assays, cells were plated in black 96-well microplates (Corning-Costar Corp., New York, N.Y.) at a density of 20,000 cells per well and assayed 24-48 hours after plating.
TMEM16A functional assay. TMEM16A functional plate-reader assay was done as previously described. […] Test compounds (0.5 μl in DMSO) were added to each well at specified concentration. […] The initial rate of I− influx following each of the solution additions was computed from fluorescence data by nonlinear regression. TMEM16B activity was assayed similarly as described using FRT cells co-expressing YFP and TMEM16B.

TMEM16A [2] = target: T1, TMEM16A; experiment: Short-circuit current assay in TMEM16A-expressing FRT cells; format: cell-based
Source text: Measurements were done in FRT cells expressing TMEM16A.
(§1) Concentration-dependent inhibition of TMEM16A measured by short-circuit current assay; TMEM16B and non-TMEM16 anion conductance measured using a fluorescence plate reader assay using FRT and HT-29 cells respectively; cell viability measured in FRT null cells.
Short-circuit current measurement. Short-circuit current measurements were done as described. (See Piechowicz, K. A. et al., J Enzyme Inhib Med Chem 2016, 1-7.) Briefly, Snapwell inserts (Corning Costar, Corning, N.Y.) containing TMEM16A-expressing FRT cells were mounted in Ussing chambers (Physiological instruments, San Diego, Calif.). The hemichambers were filled with 5 ml of HCO3^− buffered solution (basolateral) and half-Cl^− solution (apical), and the basolateral membrane was permeabilized with 250 μg/ml amphotericin B. Solutions were bubbled with 95% O2/5% CO2 and maintained at 37° C., and short-circuit current was measured on a DVC-1000 voltage clamp (World Precision Instruments Inc., Sarasota, Fla.) using Ag/AgCl electrodes and 3 M KCl agar bridges.

FRT null cells = experiment: Cytotoxicity by Alamar Blue assay in FRT cells; format: cell-based, rat; details: 8 h
Procedure: as §1
We further assayed the compound potency on endogenous non-TMEM16A. Ca^2+-activated Cl^− channel in HT-29 cells.
Cytotoxicity. FRT cells were cultured overnight in black 96-well Costar microplates and incubated with 5 μM test compounds for 8 h. Cytotoxicity was measured by Alamar Blue assay (Invitrogen, Carlsbad, Calif.) as per the manufacturer's instructions.

SW-480 cells = experiment: SW-480 cell proliferation, AlamarBlue after 72 h; format: cell-based; details: Homo sapiens, SW480; AlamarBlue after 72 h of drug treatment; read-out: IC50 inhibition of SW-480 cell proliferation
Procedure: Compounds according to the present disclosure (structures shown in FIG. 5B) were tested for their inhibitory effect on proliferation of SW-480 cell line.
SW-480 cells were cultured on plastic in Leibovitz L15 medium supplemented with 10% fetal bovine serum, 2 mM L-glutamine, 100 units/mL penicillin, and 100 μg/mL streptomycin. The cells were incubated at 37° C. without CO2.
SW-480 cells were plated into black 96-well microplates (Corning-Costar Corp., New York, N.Y.) at 10% seeding. The cells were treated with test compounds dissolved in DMSO in serial dilution while maintaining the final concentration of DMSO at 0.5%. Plated cells were then incubated for 72 h at 37° C. Cell proliferation was quantified using the AlamarBlue assay (Invitrogen, Carlsbad, Calif.) as per the manufacturer's instructions. Data was normalized against untreated control cells that were lysed for 10 minutes using Triton-X100 (0.1% in PBS).

SMILES: Cc1ccccc1NC(=O)c1c(NC(=O)C(F)(F)F)sc2c1CCCCC2 [Compound 6aa, 2-(2,2,2-Trifluoro-acetylamino)-5,6,7,8-tetrahydro-4H-cyclohepta[b]thiophene-3-carboxylic acid o-tolylamide]
- IC50 (TMEM16A [1]): 420 nM
- IC50 (TMEM16A [2]): 260 nM
- Cellular survival % at 5 μM (FRT null cells): 99%
- IC50 (SW-480 cells): 950 nM

SMILES: Cc1ccccc1NC(=O)c1c(NC(=O)C(F)(F)Br)sc2c1CCCCC2 [Compound 6bm, 2-(2-Bromo-2,2-difluoro-acetylamino)-5,6,7,8-tetrahydro-4H-cyclohepta[b]thiophene-3-carboxylic acid o-tolylamide]
- IC50 (TMEM16A [1]): 80 to 180 nM and 83 nM
- IC50 (TMEM16A [2]): 30 nM
- Cellular survival % at 5 μM (FRT null cells): 97%
- IC50 (SW-480 cells): 7000 nM
